According to the OligoGym collection:
After the bases stand the sugars from the 5' end (letter, count) and the backbone: PS all phosphorothioate, else s phosphorothioate and o phosphodiester by linkage. Methylation of C is not given here. e = 2'-O-(2-methoxyethyl) (MOE); k = constrained ethyl (cEt); d = 2'-deoxy (DNA); m = 2'-O-methyl

Biological target: HSD17B13
Settings: ASO, HepaRG

Sequence | target mRNA inhibition (1 µM) [%] | also measured
GATTAAGCAGAATTGT (sugars kkdddddddddkekek, PS) | 31 | 
GATTACAGCATCAAGA (sugars k3 d10 k3, PS) | 52 | 
GATTAGTCTTGATGTA (sugars k3 d9 k3 e1, PS) | 48 | 
GATTAGTCTTGATGTA (sugars kkdddddddddkekek, PS) | 56 | 
GATTGTTACATCACCC (sugars k3 d10 k3, PS) | 65 | target mRNA inhibition (0.02 µM): 15%; target mRNA inhibition (0.078 µM): 32%; target mRNA inhibition (0.313 µM): 33%; target mRNA inhibition (1.25 µM): 74%; target mRNA inhibition (5 µM): 91%
GATTTAGAGAGCGATA (sugars k3 d10 k3, PS) | 44 | 
GCAATGAGATTACCCC (sugars k3 d10 k3, PS) | 83 | target mRNA inhibition (0.02 µM): 3%; target mRNA inhibition (0.078 µM): 26%; target mRNA inhibition (0.313 µM): 58%; target mRNA inhibition (1.25 µM): 83%; target mRNA inhibition (5 µM): 89%
GCAATTTACTTTCAGC (sugars k3 d10 k3, PS) | 66 | 
GCACCAACTATGTAAT (sugars k3 d10 k3, PS) | 53 | 
GCAGAAATTCACCTTG (sugars kkdddddddddkekek, PS) | 53 | 
GCAGCATTGATTCGAA (sugars k3 d10 k3, PS) | 63 | 
GCATAAGAGCCAAACT (sugars k3 d10 k3, PS) | 67 | 
GCATCAAGACATTCTA (sugars k3 d10 k3, PS) | 72 | 
GCATCTTAAGATACCC (sugars k3 d1 m1 d8 k3, PS) | 65 | 
GCATCTTAAGATACCC (sugars k3 d9 k3 e1, PS) | 84 | target mRNA inhibition (0.02 µM): 28%; target mRNA inhibition (0.078 µM): 34%; target mRNA inhibition (0.313 µM): 58%; target mRNA inhibition (1.25 µM): 81%; target mRNA inhibition (5 µM): 83%
GCATGCGCAGTGACGC (sugars k3 d10 k3, PS) | 36 | 
GCATTAATGCCACCCT (sugars kkdddddddddkekek, PS) | 24 | 
GCATTAGATGGTAAGG (sugars k3 d10 k3, PS) | 64 | 
GCCACAGATTTTCTCC (sugars k3 d10 k3, PS) | 49 | 
GCCAGATTGCACAAAC (sugars k3 d10 k3, PS) | 60 | 
GCCCATCCCCTAAGTT (sugars k3 d10 k3, PS) | 33 | 
GCCCTTAAGTCATTTT (sugars k3 d10 k3, PS) | 25 | 
GCCGCACACTGAAGCC (sugars k3 d10 k3, PS) | 25 | 
GCCTAGTTACAAACCA (sugars k3 d10 k3, PS) | 56 | 
GCCTAGTTGCAATGAG (sugars k3 d10 k3, PS) | 61 | 

Sequence | target mRNA inhibition (1 µM) [%] | also measured
GCCTGCTGAAACTTGA (sugars k3 d10 k3, PS) | 18 | 
GCGCTTATTAATATCC (sugars k3 d10 k3, PS) | 3 | 
GCTAAGTAGTAATTCT (sugars k3 d10 k3, PS) | 57 | 
GCTACTTGAACAGTCT (sugars k3 d1 m1 d8 k3, PS) | 82 | 
GCTACTTGAACAGTCT (sugars k3 d9 k3 e1, PS) | 60 | 
GCTATAGTAATTGCTA (sugars k3 d10 k3, PS) | 33 | 
GCTCCATAATAATAGC (sugars k3 d9 k3 e1, PS) | 8 | 
GCTCCATAATAATAGC (sugars k3 d10 k3, PS) | 21 | 
GCTGAGAGTTATCTGG (sugars k3 d10 k3, PS) | 65 | 
GCTGCATTAATGCCAC (sugars k3 d10 k3, PS) | 46 | 
GCTGCCTGCTGAAACT (sugars k3 d10 k3, PS) | 38 | 
GCTGCTAGTGCCAAAC (sugars kkdddddddddkekek, PS) | 62 | 
GCTGGATATACTGTCC (sugars k3 d10 k3, PS) | 36 | 
GCTGGTAAAGGTAAGG (sugars k3 d10 k3, PS) | 65 | 
GCTTAATTTTCGGGTT (sugars k3 d10 k3, PS) | 36 | 
GCTTACGACAGGTCAT (sugars k3 d10 k3, PS) | 73 | 
GCTTAGTTCATTGTGA (sugars k3 d10 k3, PS) | 45 | 
GCTTTAATTTTTGAGC (sugars k3 d10 k3, PS) | 26 | 
GCTTTGCAGCATTGAT (sugars k3 d10 k3, PS) | 61 | 
GCTTTTGTCCACCTTT (sugars k3 d9 k3 e1, PS) | 81 | target mRNA inhibition (0.02 µM): 0%; target mRNA inhibition (0.078 µM): 17%; target mRNA inhibition (0.313 µM): 37%; target mRNA inhibition (1.25 µM): 69%; target mRNA inhibition (5 µM): 83%
GCTTTTGTGATCCAAA (sugars k3 d10 k3, PS) | 43 | 
GGAAATTGTTGCTGTT (sugars k3 d10 k3, PS) | 46 | 
GGAACAATATGGGATG (sugars k3 d10 k3, PS) | 36 | 
GGAATGCTACTTGAAC (sugars k3 d9 k3 e1, PS) | 68 | 
GGAAUGCTACTTGAAC (sugars k3 d1 m1 d8 k3, PS) | 62 | 

Sequence | target mRNA inhibition (1 µM) [%] | also measured
GGAGATATAACATTAC (sugars k3 d10 k3, PS) | 70 | target mRNA inhibition (0.02 µM): 10%; target mRNA inhibition (0.078 µM): 10%; target mRNA inhibition (0.313 µM): 42%; target mRNA inhibition (1.25 µM): 68%; target mRNA inhibition (5 µM): 88%
GGAGTGCATCTTAAGA (sugars k3 d9 k3 e1, PS) | 40 | 
GGAGTGCATCTTAAGA (sugars kkdddddddddkekek, PS) | 34 | 
GGAGUGCATCTTAAGA (sugars k3 d1 m1 d8 k3, PS) | 32 | 
GGATAGTGAACATACA (sugars k3 d10 k3, PS) | 62 | 
GGATATACTGTCCCAG (sugars k3 d10 k3, PS) | 9 | 
GGATCTAGAACACTTG (sugars k3 d10 k3, PS) | 32 | 
GGATGTTGACCTCAAA (sugars k3 d10 k3, PS) | 5 | 
GGATTAATCATGGGAC (sugars k3 d10 k3, PS) | 44 | 
GGATTAATTCCCTTCC (sugars k3 d10 k3, PS) | 10 | 
GGATTGCAGAAGAGTA (sugars k3 d10 k3, PS) | 76 | target mRNA inhibition (0.02 µM): 0%; target mRNA inhibition (0.078 µM): 13%; target mRNA inhibition (0.313 µM): 47%; target mRNA inhibition (1.25 µM): 77%; target mRNA inhibition (5 µM): 74%
GGCAAACCTTGAATGA (sugars k3 d10 k3, PS) | 61 | 
GGCAAATTTGCTGGAA (sugars k3 d10 k3, PS) | 54 | 
GGCACTAAAGGTTTCT (sugars k3 d10 k3, PS) | 62 | target mRNA inhibition (0.02 µM): 0%; target mRNA inhibition (0.078 µM): 26%; target mRNA inhibition (0.313 µM): 41%; target mRNA inhibition (1.25 µM): 66%; target mRNA inhibition (5 µM): 75%
GGCAGTAAAGTGCTAA (sugars k3 d10 k3, PS) | 62 | 
GGCAGTTGAAGTTGAT (sugars k3 d10 k3, PS) | 46 | 
GGCATGGCTACAGATT (sugars k3 d10 k3, PS) | 69 | 
GGCTAAAATGGTCATC (sugars k3 d10 k3, PS) | 75 | 
GGCTACAGATTGGAAT (sugars k3 d1 m1 d8 k3, PS) | 40 | 
GGCTACAGATTGGAAT (sugars k3 d9 k3 e1, PS) | 28 | 
GGCTAGGGAAATCTTT (sugars k3 d10 k3, PS) | 57 | 
GGCTATAACTGGAAGG (sugars k3 d10 k3, PS) | 52 | 
GGCTTATGAAGTTAGT (sugars k3 d10 k3, PS) | 59 | 
GGGAGGTAGCTTTTGT (sugars kkdddddddddkekek, PS) | 66 | 
GGGTCCACTTTTGGTG (sugars k3 d10 k3, PS) | 13 | 

Sequence | target mRNA inhibition (1 µM) [%] | also measured
GGTAAGGAATCCCTTC (sugars k3 d10 k3, PS) | 43 | 
GGTAATTAATCTTGTT (sugars k3 d10 k3, PS) | 58 | 
GGTCACCTTTCATAAT (sugars k3 d1 m1 d8 k3, PS) | 48 | 
GGTCACCTTTCATAAT (sugars k3 d9 k3 e1, PS) | 49 | 
GGTCAGTAGAGAGCAT (sugars k3 d10 k3, PS) | 79 | 
GGTCATTTAGAATACG (sugars k3 d10 k3, PS) | 39 | 
GGTGGACTTCAGAGTT (sugars k3 d10 k3, PS) | 26 | 
GGTGGTAACGGTGATC (sugars k3 d10 k3, PS) | 31 | 
GTAAATGATGGCAGGA (sugars k3 d10 k3, PS) | 34 | 
GTAAGCTGAGAGTTCT (sugars k3 d10 k3, PS) | 49 | 
GTAAGGTAAAGTCTAA (sugars k3 d10 k3, PS) | 37 | 
GTAAGTATTCCATCTA (sugars k3 d1 m1 d8 k3, PS) | 43 | 
GTAAGTATTCCATCTA (sugars k3 d9 k3 e1, PS) | 39 | 
GTAAGTATTCCATCTA (sugars kkdddddddddkekek, PS) | 53 | 
GTAATAAAGTCCAGAA (sugars k3 d10 k3, PS) | 66 | 
GTAATAGCCAGTACAG (sugars k3 d9 k3 e1, PS) | 62 | 
GTAATCACAAGTAAGG (sugars k3 d9 k3 e1, PS) | 56 | 
GTAATGAGAACAATCT (sugars k3 d10 k3, PS) | 48 | 
GTAATTGCTATAGTAA (sugars k3 d10 k3, PS) | 33 | 
GTAATTGGCTCTTGAG (sugars k3 d10 k3, PS) | 44 | 
GTAAUAGCCAGTACAG (sugars k3 d1 m1 d8 k3, PS) | 62 | 
GTACAAATTTATGCCA (sugars k3 d10 k3, PS) | 45 | 
GTAGAATTGTCTGTTA (sugars k3 d10 k3, PS) | 51 | 
